Experimental data: patent publication US20090307784A1, “Methods of Analysing Cell Behaviour” (Medical Research Council, priority 2005, published 2009)

Experiments:
Gli1 = conditions: cultured keratinocytes; cited from earlier work
[1] = test system: transit amplifying cell clones and stem cell clones in tail skin epidermis; test: Topical treatment of tail skin of induced Ahcre^ERT R26^EYFP/wt mice, clonal fate by wholemount confocal imaging; assay type: in vivo, mouse; conditions: applied topically to tail skin, compared with vehicle only control
Protocol: The generation of Ahcre^ERT and R26^EYFP/EYFP mice has been described previously (Kemp et al (2004) Nucleic Acids Res 32, e92; Srinivas et al (2001) BMC Dev Biol 1, 4). To induce ere expression AhcreERT R26^EYFP/wt heterozygote animals were given a single intraperitoneal injection of 80 mg/kg β-napthoflavone (SIGMA) and 1 mg tamoxifen free base (MP Biomedicals) dissolved in corn oil. To prepare epidermal wholemounts, mice were killed, and then tail skin was cut into 0.5 cm sections and incubated in 5 mM EDTA/PBS for 4 h at 37 C. Epidermis was then peeled of the dermis and fixed in 4% paraformaldehyde for 1 h at room temperature. Fixed epidermal sheets were stored in PBS at 4C.
Epidermal sheets were blocked and permeabilized by incubation in PB buffer containing 0.5% BSA 0.25% Fish skin gelatin, 0.5% Triton X-100 and Goat/Donkey/Rat serum as appropriate in PBS for 1 h. Primary antibodies were diluted in PB buffer and epidermal sections incubated overnight at room temperature on rocking platform then washed 4×1 h in PBS/0.2% Tween 20. Secondary antibodies were diluted 1:250 in PB buffer, sections incubated overnight, then washed 4×1 h. Samples were rinsed in distilled water and mounted. […]

[2] = test system: BCC and squamous carcinoma (SCC); conditions: cited from earlier work
BCC = conditions: topical, irradiated patched heterozygote mice; cited from earlier work

For `CC1=C(/C=C/C(C)=C/C=C/C(C)=C/C(=O)O)C(C)(C)CCC1` [ATRA, all trans retinoic acid], the “effect on Gli1” value (Gli1) is given as “inhibition of Gli1”, the “effect on stem cell clones” value [1] is given as “expansion of stem cell clones” and the “effect on transit amplifying cell clones” value [1] is given as “rapid depletion of transit amplifying cell clones”.

In the case of `COc1cc(C)c(/C=C/C(C)=C/C=C/C(C)=C/C(=O)O)c(C)c1C` [acitretin], the “effect on SCC and BCC development” value ([2]; oral, renal transplant patients) is given as “may inhibit SCC and BCC development”.

In the case of `CC1=C(/C=C/C(C)=C/C=C/C(C)=C\C(=O)O)C(C)(C)CCC1` [isotretinoin], the “benefit in chemoprevention of BCC and squamous carcinoma (SCC)” value ([2]; clinical studies) is listed as “no benefit”.

In the case of `CC1=C(/C=C/C(C)=C/C=C/C(C)=C/CO)C(C)(C)CCC1` [retinol], the “benefit in chemoprevention of BCC and squamous carcinoma (SCC)” value ([2]; clinical studies) is listed as “no benefit”.

In the case of `CCOC(=O)c1ccc(C#Cc2ccc3c(c2)C(C)(C)CCS3)nc1` [tazarotene], the “number of BCC induced by UV or ionizing radiation” value (BCC) is given as “substantial decrease in the number of BCC” and the “effect on BCC” value ([2]; topical treatment, clinical studies) is given as “regression of BCC”.
